Laboratory results taken from ChEMBL document CHEMBL1141328, “Biologically active aspidofractinine, rhazinilam, akuammiline, and vincorine alkaloids from Kopsia” (J Nat Prod, 2007).

Tests used:
Type in all cases: functional, cell-based
[1] = Cytotoxicity against vincristine-resistant human KB/VJ300 cells
KB [2] = experiment: Cytotoxicity against vincristine-resistant human KB cells
[3] = Cytotoxicity against vincristine-resistant human KB/VJ300 cells in presence of 0.121 uM vincristine
[4] = Cytotoxicity against human KB/VJ300 cells
KB [5] = experiment: Cytotoxicity against human KB cells

Structure (SMILES)	IC50 [1]	IC50 (KB [2])	IC50 [3]	IC50 [4]	IC50 (KB [5])
COC(=O)[C@H]1C[C@@]23CCCN4CC[C@@]5(c6ccccc6N[C@]15CC2)[C@@H]43	> 25 µg/mL	> 25 µg/mL	> 25 µg/mL	–	–
C/C=C1/CN2CC[C@]34C(=Nc5ccccc53)[C@@H]2C[C@H]1C4(C(=O)OC)C(=O)OC(C)=O (stereo partly specified)	> 25 µg/mL	> 25 µg/mL	> 25 µg/mL	–	–
C/C=C1/CN(C=O)[C@H]2C[C@H]1C(C(=O)OC)[C@@]13CCO[C@@]21Nc1ccccc13 (stereo partly specified) [ASPIDOPHYLLINE A]	> 25 µg/mL	> 25 µg/mL	29.1 µM	–	–
COC(=O)N1c2ccccc2[C@@]23CCN4CC=C[C@]5(CC[C@]12C(O)(C(=O)OC)C5O)[C@H]43 (stereo partly specified) [KOPSILOSCINE A]	42.3 µM	45.8 µM	8.9 µM	–	–
COC(=O)N1c2ccccc2[C@@]23CCN4CCC[C@]5(CC[C@]12[C@](O)(C(=O)OC)[C@H]5O)[C@H]43 [KOPSILOSCINE B]	> 25 µg/mL	> 25 µg/mL	11.7 µM	–	–
COC(=O)N1c2ccccc2[C@@]23CCN4CC[C@H](O)[C@@]5(CC[C@]12[C@](O)(C(=O)OC)[C@H]5O)[C@H]43 [KOPSILOSCINE C]	> 25 µg/mL	> 25 µg/mL	> 25 µg/mL	–	–
COC(=O)N1c2ccc(OC)cc2[C@@]23CCN4CCC[C@]5(CC[C@]12[C@](O)(C(=O)OC)[C@H]5O)[C@H]43 [KOPSILOSCINE D]	> 25 µg/mL	> 25 µg/mL	25.1 µM	–	–
COC(=O)N1c2ccc(OC)cc2[C@@]23CCN4CC[C@H](O)[C@@]5(CC[C@]12[C@](O)(C(=O)OC)[C@H]5O)[C@H]43 [KOPSILOSCINE E]	> 25 µg/mL	> 25 µg/mL	> 25 µg/mL	–	–
COC(=O)N1c2c(OC)cccc2[C@@]23CCN4CC[C@H](O)[C@@]5(CC[C@]12[C@](O)(C(=O)OC)[C@H]5O)[C@H]43 [KOPSILOSCINE F]	> 25 µg/mL	> 25 µg/mL	> 25 µg/mL	–	–
CC[C@]12CCCn3c(C=O)cc(c31)-c1ccccc1NC(=O)CC2 [RHAZINAL]	0.76 µM	0.73 µM	0.93 µM	–	–
CC[C@@]12CCC(=O)Nc3ccccc3-c3ccn(c31)C(=O)CC2 [RHAZINICINE]	8.12 µM	4.06 µM	6.01 µM	–	–
CC[C@]12CCCn3ccc(c31)-c1ccccc1NC(=O)CC2 [RHAZINILAM]	0.83 µM	0.65 µM	1.16 µM	–	–
C/C=C1/CN2CC[C@@]34c5ccccc5C[C@@]23CC[C@H]1C4(CO)C(=O)OC (stereo partly specified) [VINCOPHYLLINE]	> 25 µg/mL	> 25 µg/mL	> 25 µg/mL	–	–
CC[C@]1(O)C[C@H]2CN(CCc3c([nH]c4ccccc34)[C@@](C(=O)OC)(c3cc4c(cc3OC)N(C=O)[C@H]3[C@@](O)(C(=O)OC)[C@H](OC(C)=O)[C@]5(CC)C=CCN6CC[C@]43[C@@H]65)C2)C1 [VINCRISTINE]	–	–	–	1.2 µM	0.0028 µM
